These results are taken from ChEMBL document CHEMBL1201862, “PubChem BioAssay data set” (2004).

The term GI50 denotes the concentration at which growth is held to half of that of the control.

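Following 48 hours of exposure in 96-well plates, responses at five concentrations were used to interpolate endpoints linearly. At the GI50, growth is halved.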 The source made the active and inactive calls. No stated cut-off is given here; in the data, active = GI50 up to about 1.1 µM and inactive = higher.

Some test systems named below: A498; EKVX; NCI-H460; CAKI-1; BT-549; HL-60; TK-10; OVCAR-8; SK-MEL-28; RPMI-8226; HT-29; MDA-MB-231; SF-268; MCF7; MDA-MB-435; IGROV-1; NCI-H23; SK-MEL-5; SN12C; HOP-62.
What all share (experiment): DTP human tumour cell line panel, 48 h

In the case of `O=C1c2cccc3cc4ccccc4c(c23)C(=O)N1CCCNCCNCCCN1C(=O)c2cccc3cc4ccccc4c(c23)C1=O`, the GI50 is 0.526 µM (active) in the assay on A498; 1.15 µM (inactive) in the assay with EKVX; < 0.01 µM (active) with NCI-H460; 0.141 µM (active) with CAKI-1; 1.24 µM (inactive) in the assay on BT-549; < 0.0171 µM (active) with HL-60. For the same compound, the GI50 was 1 µM (active) in the assay on TK-10; 0.0107 µM (active) with OVCAR-8; 0.239 µM (active) in the assay with SK-MEL-28; < 0.01 µM (active) in the assay with RPMI-8226; 0.0104 µM (active) with HT-29; 0.189 µM (active) in the assay with MDA-MB-231. The 50% growth inhibitory concentration (GI50) is 0.196 µM (active) in the assay with SF-268; 0.0191 µM (active) with MCF7; 0.0421 µM (active) with MDA-MB-435; 0.0139 µM (active) with IGROV-1; 0.0509 µM (active) in the assay on NCI-H23; 0.128 µM (active) in the assay on SK-MEL-5. In addition, the GI50 in the assay with SN12C is < 0.01 µM (active); in the assay on HOP-62, 0.0203 µM (active).
Regarding `COC(=O)C1Cc2c(C)cccc2C1=O` (stereo not given), the GI50 was > 100 µM (inactive) in the assay with A498; > 100 µM (inactive) with EKVX; > 100 µM (inactive) in the assay on NCI-H460; > 100 µM (inactive) with CAKI-1; > 100 µM (inactive) with BT-549; 29.4 µM (inactive) with HL-60. Also, the GI50 in the assay with TK-10, with OVCAR-8, with SK-MEL-28, with RPMI-8226, with HT-29 and with MDA-MB-231 was > 100 µM (inactive) in each case. In addition, the GI50 in the assay on SF-268, with MCF7, in the assay on MDA-MB-435, in the assay with IGROV-1, in the assay with NCI-H23 and in the assay on SK-MEL-5 was > 100 µM (inactive) in each case. In addition, the GI50 with SN12C and with HOP-62 was > 100 µM (inactive) throughout.
`Cc1nc2[nH]ccn2c(=O)c1CCCl`: the GI50 with A498 was 19 µM (inactive); in the assay on EKVX it was > 100 µM (inactive); with NCI-H460 it was 20.6 µM (inactive); in the assay on CAKI-1 it was > 10 µM (inactive); in the assay on BT-549, 25.2 µM (inactive); in the assay on HL-60, 25.4 µM (inactive). Further, the GI50 with TK-10 was 31 µM (inactive); with OVCAR-8 it was 26.7 µM (inactive); with SK-MEL-28 it was 30.1 µM (inactive); with RPMI-8226, 28 µM (inactive); with HT-29 it was 33.7 µM (inactive); in the assay with MDA-MB-231, 38.7 µM (inactive). The GI50 in the assay on SF-268 was 36.4 µM (inactive); in the assay with MCF7, 68.1 µM (inactive); in the assay with MDA-MB-435, > 10 µM (inactive); in the assay with IGROV-1 it was 26.2 µM (inactive); with NCI-H23, 18.3 µM (inactive); with SK-MEL-5, 17.1 µM (inactive). For the same compound, the GI50 in the assay on SN12C was 19.6 µM (inactive); in the assay with HOP-62 it was 23.6 µM (inactive).
Take `COc1ccc(N2C(=O)CC(c3c[nH]c4ncccc34)C2=O)cc1` (stereo not given): the GI50 in the assay on A498 was 58.5 µM (inactive); with EKVX it was 37.1 µM (inactive); in the assay with NCI-H460, > 100 µM (inactive); in the assay on CAKI-1, 19.7 µM (inactive); in the assay on BT-549, 17.5 µM (inactive); with HL-60 it was 11.5 µM (inactive). Also, the GI50 is 14.2 µM (inactive) with TK-10; 19.7 µM (inactive) with OVCAR-8; 29 µM (inactive) with SK-MEL-28; > 100 µM (inactive) with RPMI-8226; 19.8 µM (inactive) with HT-29; 20 µM (inactive) in the assay on MDA-MB-231. The GI50 was > 100 µM (inactive) with SF-268; 27.5 µM (inactive) with MCF7; 14.4 µM (inactive) in the assay with MDA-MB-435; 21.3 µM (inactive) in the assay on IGROV-1; 24.2 µM (inactive) in the assay with NCI-H23; > 100 µM (inactive) with SK-MEL-5. For the same compound, the results for the GI50 in the assay on SN12C and in the assay on HOP-62 were 18.5 µM (inactive) and > 100 µM (inactive), respectively.
As to `CN(C)CCCNc1c2c(=O)n(C)c(=O)nc-2n(C)c2ccccc12`, the GI50 was 9.27 µM (inactive) with A498; 6.43 µM (inactive) in the assay with EKVX; 2.85 µM (inactive) in the assay on NCI-H460; 7.13 µM (inactive) in the assay on CAKI-1; 12.7 µM (inactive) in the assay on BT-549; 0.966 µM (active) in the assay with HL-60. The GI50 in the assay with TK-10 was 5.26 µM (inactive); with OVCAR-8 it was 4.83 µM (inactive); in the assay with SK-MEL-28, 10.4 µM (inactive); in the assay with RPMI-8226, 7.1 µM (inactive); with HT-29, 4.26 µM (inactive); with MDA-MB-231, 6 µM (inactive). Also, the GI50 in the assay with SF-268 was 5.38 µM (inactive); in the assay with MCF7 it was 3.82 µM (inactive); with MDA-MB-435, 3.94 µM (inactive); in the assay with IGROV-1 it was 15.6 µM (inactive); with NCI-H23 it was 7.41 µM (inactive); in the assay with SK-MEL-5, 6.21 µM (inactive). For the same compound, the figures for the GI50 with SN12C and in the assay on HOP-62 were 4.43 µM (inactive) and 3.75 µM (inactive), respectively.
Regarding `CCOC(=O)Nc1cc2ccccc2c(/N=N/c2ccccc2)c1O`, the GI50 was > 100 µM (inactive) in the assay on A498; > 100 µM (inactive) in the assay on EKVX; > 100 µM (inactive) with NCI-H460; 75.3 µM (inactive) in the assay on CAKI-1; > 100 µM (inactive) in the assay on BT-549; > 100 µM (inactive) in the assay on HL-60. The GI50 in the assay with TK-10 is > 100 µM (inactive); in the assay with OVCAR-8, 37.2 µM (inactive); in the assay on SK-MEL-28, > 100 µM (inactive); in the assay with RPMI-8226 it was > 100 µM (inactive); in the assay with HT-29, > 100 µM (inactive); in the assay with MDA-MB-231 it was > 100 µM (inactive). The GI50 with SF-268 is 58.2 µM (inactive); in the assay on MCF7, 56.4 µM (inactive); in the assay on MDA-MB-435, > 100 µM (inactive); in the assay on IGROV-1, 59.7 µM (inactive); in the assay on NCI-H23 it was > 100 µM (inactive); in the assay with SK-MEL-5 it was > 100 µM (inactive). The GI50 with SN12C is > 100 µM (inactive); in the assay with HOP-62, 27.9 µM (inactive).
Consider `O=C1c2ccccc2-c2c1c1ccccc1c(=O)n2-c1cccnc1`, for which the GI50 was > 10 µM (inactive) in the assay with A498; > 44.2 µM (inactive) in the assay on EKVX; 6.24 µM (inactive) in the assay on NCI-H460; 35.3 µM (inactive) with CAKI-1; 34.8 µM (inactive) in the assay on BT-549; > 10 µM (inactive) with HL-60. The GI50 was > 62.1 µM (inactive) in the assay on TK-10; 31.8 µM (inactive) in the assay with OVCAR-8; > 100 µM (inactive) in the assay with SK-MEL-28; > 39.5 µM (inactive) in the assay on RPMI-8226; > 63.7 µM (inactive) in the assay with HT-29; > 59.7 µM (inactive) in the assay on MDA-MB-231. In addition, the GI50 was 29.5 µM (inactive) in the assay on SF-268; 22.5 µM (inactive) in the assay with MCF7; > 100 µM (inactive) in the assay on MDA-MB-435; 34.2 µM (inactive) with IGROV-1; 37.8 µM (inactive) in the assay with NCI-H23; 73.5 µM (inactive) with SK-MEL-5. In addition, the GI50 is > 52.2 µM (inactive) in the assay on SN12C and 12.1 µM (inactive) in the assay on HOP-62.
